Results as given in patent publication US20090304692A1, “TRIAZINE COMPOUNDS AS PI3 KINASE AND MTOR INHIBITORS” (Wyeth, priority 2008, published 2009).
Read-outs that look alike come from different tables or passages of the source.

Tests used:
PI3K-α = PI3K-α (Homo sapiens, UniProt P42336); test: PI3K-alpha fluorescence polarization assay; conditions: read-out: IC50 PI3Kα
PI3K-γ = PI3K-γ (Homo sapiens, UniProt P48736); test: PI3K-gamma fluorescence polarization assay; conditions: read-out: IC50 PI3Kγ
[1] = tested on: human prostate LNCap tumor cell line; test: In vitro cell culture growth assay (MTS), LNCap; conditions: Homo sapiens, LNCaP, 72 h, read-out: IC50 LNCap
Human mTOR (FLAG-TOR) = Human mTOR (FLAG-TOR) (Homo sapiens, UniProt P42345); test: mTOR kinase assay (DELFIA format, purified enzyme); assay type: biochemical; conditions: read-out: IC50 mTOR
[2] = tested on: human prostate PC3-mm2 tumor cell line; test: In vitro cell culture growth assay (MTS), PC3-mm2; assay type: cell-based; conditions: Homo sapiens, PC3MM2, 72 h, MTS cell growth assay, three days after drug treatment, read-out: IC50 PC3-mm2
[3] = tested on: human breast MDA-MB-361 tumor cell line; test: In vitro cell culture growth assay (MTS), MDA-MB-361; assay type: cell-based; conditions: Homo sapiens, MTS cell growth assay, three days after drug treatment, read-out: IC50 MDA-MB-361

PI3K-γ, sequence (P48736 whole entry, species assumed): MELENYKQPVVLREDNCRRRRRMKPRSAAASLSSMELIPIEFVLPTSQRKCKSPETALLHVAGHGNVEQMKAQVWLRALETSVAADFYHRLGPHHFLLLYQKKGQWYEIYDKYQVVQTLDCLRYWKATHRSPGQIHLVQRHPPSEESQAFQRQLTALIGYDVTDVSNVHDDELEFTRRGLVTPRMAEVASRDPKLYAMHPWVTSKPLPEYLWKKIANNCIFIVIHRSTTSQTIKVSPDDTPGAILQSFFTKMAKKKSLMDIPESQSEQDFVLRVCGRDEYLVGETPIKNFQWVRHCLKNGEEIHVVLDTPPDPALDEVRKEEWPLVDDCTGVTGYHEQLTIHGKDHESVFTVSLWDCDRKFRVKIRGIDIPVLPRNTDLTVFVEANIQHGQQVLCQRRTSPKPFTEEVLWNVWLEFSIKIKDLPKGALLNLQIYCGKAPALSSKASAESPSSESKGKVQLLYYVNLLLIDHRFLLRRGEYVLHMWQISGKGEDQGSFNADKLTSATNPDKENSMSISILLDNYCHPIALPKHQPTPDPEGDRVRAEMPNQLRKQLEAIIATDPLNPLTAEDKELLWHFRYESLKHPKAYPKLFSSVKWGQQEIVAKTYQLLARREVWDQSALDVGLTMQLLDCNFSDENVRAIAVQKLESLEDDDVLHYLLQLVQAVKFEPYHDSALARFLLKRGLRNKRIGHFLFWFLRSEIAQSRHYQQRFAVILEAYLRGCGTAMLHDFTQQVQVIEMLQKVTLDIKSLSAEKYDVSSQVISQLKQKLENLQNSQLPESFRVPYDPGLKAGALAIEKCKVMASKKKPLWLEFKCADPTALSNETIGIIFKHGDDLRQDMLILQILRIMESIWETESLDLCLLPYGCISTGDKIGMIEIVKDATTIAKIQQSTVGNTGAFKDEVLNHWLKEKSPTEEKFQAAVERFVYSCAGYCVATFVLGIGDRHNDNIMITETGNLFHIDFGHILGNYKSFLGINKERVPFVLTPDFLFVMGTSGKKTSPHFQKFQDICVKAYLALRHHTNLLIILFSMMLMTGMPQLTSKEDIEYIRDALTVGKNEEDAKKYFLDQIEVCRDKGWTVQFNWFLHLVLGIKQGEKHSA
PI3K-α, sequence (P42336 whole entry, species assumed): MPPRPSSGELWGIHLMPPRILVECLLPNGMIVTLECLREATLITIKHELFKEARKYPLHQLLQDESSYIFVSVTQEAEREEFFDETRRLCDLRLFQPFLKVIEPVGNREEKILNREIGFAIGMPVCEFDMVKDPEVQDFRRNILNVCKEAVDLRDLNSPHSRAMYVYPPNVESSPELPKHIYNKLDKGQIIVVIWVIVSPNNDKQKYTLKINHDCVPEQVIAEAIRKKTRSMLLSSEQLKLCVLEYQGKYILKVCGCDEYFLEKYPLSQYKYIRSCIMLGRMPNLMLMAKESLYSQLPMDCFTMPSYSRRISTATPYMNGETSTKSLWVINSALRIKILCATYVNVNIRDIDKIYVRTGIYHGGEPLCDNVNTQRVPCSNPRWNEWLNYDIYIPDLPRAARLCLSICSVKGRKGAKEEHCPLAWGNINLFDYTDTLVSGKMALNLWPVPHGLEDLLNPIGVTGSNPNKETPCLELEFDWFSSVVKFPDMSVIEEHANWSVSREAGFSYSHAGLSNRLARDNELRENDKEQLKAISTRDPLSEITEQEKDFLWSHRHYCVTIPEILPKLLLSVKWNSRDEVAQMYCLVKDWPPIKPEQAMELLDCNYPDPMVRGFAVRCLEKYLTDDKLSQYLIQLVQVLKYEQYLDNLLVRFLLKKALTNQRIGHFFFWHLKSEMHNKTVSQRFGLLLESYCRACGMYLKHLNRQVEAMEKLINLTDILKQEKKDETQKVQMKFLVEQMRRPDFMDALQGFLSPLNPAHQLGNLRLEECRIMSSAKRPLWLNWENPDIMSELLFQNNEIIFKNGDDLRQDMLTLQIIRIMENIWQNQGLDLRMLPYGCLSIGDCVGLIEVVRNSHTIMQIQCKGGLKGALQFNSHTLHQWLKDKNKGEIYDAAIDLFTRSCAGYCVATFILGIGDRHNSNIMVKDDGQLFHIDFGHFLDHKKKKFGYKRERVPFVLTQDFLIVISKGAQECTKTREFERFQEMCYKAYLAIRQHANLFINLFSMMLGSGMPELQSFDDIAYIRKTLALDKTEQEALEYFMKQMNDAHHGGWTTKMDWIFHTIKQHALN
PI3K-α, sequence (P27986 whole entry partner, species assumed): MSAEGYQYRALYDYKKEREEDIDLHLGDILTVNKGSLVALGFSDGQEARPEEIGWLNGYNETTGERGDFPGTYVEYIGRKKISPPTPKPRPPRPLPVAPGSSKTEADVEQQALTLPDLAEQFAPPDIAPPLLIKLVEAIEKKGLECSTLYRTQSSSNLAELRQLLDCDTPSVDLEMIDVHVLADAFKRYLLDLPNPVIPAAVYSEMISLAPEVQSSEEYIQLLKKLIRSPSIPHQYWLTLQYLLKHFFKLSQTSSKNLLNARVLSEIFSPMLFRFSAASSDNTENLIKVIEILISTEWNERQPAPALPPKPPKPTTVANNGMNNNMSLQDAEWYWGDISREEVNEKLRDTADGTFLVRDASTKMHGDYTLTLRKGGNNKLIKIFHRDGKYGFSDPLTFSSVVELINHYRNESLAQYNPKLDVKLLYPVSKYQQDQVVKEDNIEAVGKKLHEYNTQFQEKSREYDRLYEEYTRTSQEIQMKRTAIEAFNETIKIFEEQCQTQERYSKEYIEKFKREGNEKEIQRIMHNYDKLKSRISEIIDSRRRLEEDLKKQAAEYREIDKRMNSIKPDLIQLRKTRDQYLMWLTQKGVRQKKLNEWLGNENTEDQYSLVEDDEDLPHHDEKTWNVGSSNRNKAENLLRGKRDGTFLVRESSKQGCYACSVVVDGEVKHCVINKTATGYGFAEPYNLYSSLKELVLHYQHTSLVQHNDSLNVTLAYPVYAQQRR
Human mTOR (FLAG-TOR), sequence (P42345 1360-2549 limits assumed): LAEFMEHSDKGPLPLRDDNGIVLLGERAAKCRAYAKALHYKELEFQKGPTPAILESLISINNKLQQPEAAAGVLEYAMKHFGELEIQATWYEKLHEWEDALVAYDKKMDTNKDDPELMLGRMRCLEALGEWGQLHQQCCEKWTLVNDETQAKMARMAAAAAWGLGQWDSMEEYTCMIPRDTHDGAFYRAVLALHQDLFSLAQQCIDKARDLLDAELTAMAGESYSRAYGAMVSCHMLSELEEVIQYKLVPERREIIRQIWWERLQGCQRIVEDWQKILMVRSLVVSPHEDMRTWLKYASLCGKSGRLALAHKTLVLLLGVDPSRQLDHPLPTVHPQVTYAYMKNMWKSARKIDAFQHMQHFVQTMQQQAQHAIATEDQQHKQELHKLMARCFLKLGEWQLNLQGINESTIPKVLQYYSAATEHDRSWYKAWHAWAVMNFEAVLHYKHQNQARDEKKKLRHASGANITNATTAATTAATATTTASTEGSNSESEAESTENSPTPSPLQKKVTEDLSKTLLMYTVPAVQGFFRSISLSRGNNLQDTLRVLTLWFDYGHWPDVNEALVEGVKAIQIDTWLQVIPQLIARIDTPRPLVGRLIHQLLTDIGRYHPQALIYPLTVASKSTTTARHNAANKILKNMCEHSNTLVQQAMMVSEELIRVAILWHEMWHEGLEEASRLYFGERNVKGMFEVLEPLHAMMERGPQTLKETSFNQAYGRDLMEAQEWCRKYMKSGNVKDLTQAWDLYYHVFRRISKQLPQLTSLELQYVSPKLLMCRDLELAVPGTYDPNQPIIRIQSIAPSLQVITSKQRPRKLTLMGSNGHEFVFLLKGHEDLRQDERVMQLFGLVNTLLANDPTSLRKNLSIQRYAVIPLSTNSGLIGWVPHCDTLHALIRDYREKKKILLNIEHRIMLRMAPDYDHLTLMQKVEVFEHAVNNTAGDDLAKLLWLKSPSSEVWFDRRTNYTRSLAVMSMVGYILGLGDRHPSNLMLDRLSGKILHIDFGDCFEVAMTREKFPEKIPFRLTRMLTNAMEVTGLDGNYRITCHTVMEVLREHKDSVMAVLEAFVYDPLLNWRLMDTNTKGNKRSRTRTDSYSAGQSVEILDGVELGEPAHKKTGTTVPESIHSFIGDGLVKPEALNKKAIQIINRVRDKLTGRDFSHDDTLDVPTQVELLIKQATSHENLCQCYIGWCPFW

Row | IC50 (PI3K-α) | IC50 (PI3K-γ) | IC50 (Human mTOR (FLAG-TOR)) | IC50 ([2]; PC3-mm2 cells) | IC50 ([3]; 72 h, MDA-MB-361 cells) | IC50 [2] | IC50 (PI3K-γ; listed as 709) | IC50 ([3]; MDA-MB-361, 72 h) | IC50 ([3]; MDA-MB-361, 72 h, MDA-MB-361 cells) | SMILES | IC50 [1]
1 | 32.3 nM | 27 nM | 1.8 nM | 339 nM | 175 nM | – | – | – | – | CC(C)c1nc(-c2ccc(NC(=O)Nc3ccc(-c4cncnc4)cc3)cc2)nc(N2CCOCC2)n1 [Example 487, 1-{4-[4-(1-methylethyl)-6-morpholin-4-yl-1,3,5-triazin-2-yl]phenyl}-3-(4-pyrimidin-5-ylphenyl)urea] | –
2 | 12 nM | 94 nM | 19 nM | 213 nM | – | – | – | – | 24 nM | CN1CCN(C(=O)c2ccc(NC(=O)Nc3ccc(-c4nc(N5CCCC5)nc(N5CCOCC5)n4)cc3)cc2)CC1 [Example 607, 1-{4-[(4-methylpiperazin-1-yl)carbonyl]phenyl}-3-[4-(4-morpholin-4-yl-6-pyrrolidin-1-yl-1,3,5-triazin-2-yl)phenyl]urea] | –
3 | 4 nM | 17 nM | 10.9 nM | 219 nM | 30 nM | – | – | – | – | CN(C)CCNC(=O)c1ccc(NC(=O)Nc2ccc(-c3nc(-c4ccccc4)nc(N4CCOCC4)n3)cc2)cc1 [Example 545, N-[2-(dimethylamino)ethyl]-4-({[4-(4-morpholin-4-yl-6-phenyl-1,3,5-triazin-2-yl)phenyl]carbamoyl}amino)benzamide] | –

The next lines start with the molecule.

Row | SMILES | IC50 (PI3K-α) | IC50 (PI3K-γ) | IC50 (Human mTOR (FLAG-TOR)) | IC50 ([2]; PC3-mm2 cells) | IC50 ([3]; 72 h, MDA-MB-361 cells) | IC50 [2] | IC50 (PI3K-γ; listed as 709) | IC50 ([3]; MDA-MB-361, 72 h) | IC50 ([3]; MDA-MB-361, 72 h, MDA-MB-361 cells) | IC50 [1]
4 | CNC(=O)Nc1ccc(-c2nc(N3CC4CCC(C3)O4)nc(N3CC4CNCC(C3)O4)n2)cc1 [Example 234, 1-methyl-3-{4-[4-(8-oxa-3-azabicyclo[3.2.1]oct-3-yl)-6-(9-oxa-3,7-diazabicyclo[3.3.1]non-3-yl)-1,3,5-triazin-2-yl]phenyl}urea] | 4530 nM | 9530 nM | – | – | – | – | – | – | – | 10000 nM
5 | CC(C)N1CCN(c2ccc(NC(=O)Nc3ccc(-c4nc(C5CCOCC5)nc(N5C6CCC5COC6)n4)cc3)cc2)CC1 [Example 435, 1-(4-(4-(3-oxa-8-azabicyclo[3.2.1]octan-8-yl)-6-(tetrahydro-2H-pyran-4-yl)-1,3,5-triazin-2-yl)phenyl)-3-(4-(4-isopropylpiperazin-1-yl)phenyl)urea] | – | 4600 nM | – | – | – | – | – | – | – | 4 nM
6 | O=C(Nc1ccc(-c2nc(N3C4CCC3COC4)nc(N3C4CCC3COC4)n2)cc1)N1CCNCC1 [Example 286, N-[4-(4,6-di-3-oxa-8-azabicyclo[3.2.1]oct-8-yl-1,3,5-triazin-2-yl)phenyl]piperazine-1-carboxamide] | 4200 nM | – | – | – | – | – | – | – | – | 32000 nM
7 | CC(C)N1CCN(C(=O)c2ccc(NC(=O)Nc3ccc(-c4nc(C5CCOCC5)nc(N5C6CCC5COC6)n4)cc3)cc2)CC1 [Example 439, 1-(4-(4-(3-oxa-8-azabicyclo[3.2.1]octan-8-yl)-6-(tetrahydro-2H-pyran-4-yl)-1,3,5-triazin-2-yl)phenyl)-3-(4-(4-isopropylpiperazine-1-carbonyl)phenyl)urea] | – | – | – | – | – | – | – | – | – | 1 nM
8 | O=C(Nc1ccncc1)Nc1ccc(-c2nc(OCCN3CCCCC3)nc(N3CC4CCC(C3)O4)n2)cc1 [Example 144, 1-{4-[4-(8-oxa-3-azabicyclo[3.2.1]oct-3-yl)-6-(2-piperidin-1-ylethoxy)-1,3,5-triazin-2-yl]phenyl}-3-pyridin-4-ylurea] | – | – | – | – | – | – | – | – | – | 1500 nM
9 | N#Cc1ccc(NC(=O)Nc2ccc(-c3nc(N4CCOCC4)nc(N4CCC5(CC4)OCCO5)n3)cc2)cc1 [Example 134, 1-(4-cyanophenyl)-3-{4-[4-(1,4-dioxa-8-azaspiro[4.5]dec-8-yl)-6-morpholin-4-yl-1,3,5-triazin-2-yl]phenyl}urea] | 20 nM | 183 nM | 24.5 nM | 857 nM | – | 857 nM | 182 nM | 805 nM | – | –
10 | CC(C)Cc1nc(-c2ccc(NC(=O)Nc3ccc(C(=O)N(C)CCN(C)C)cc3)cc2)nc(N2CCOCC2)n1 [Example 324, N-[2-(dimethylamino)ethyl]-N-methyl-4-[({4-[4-(2-methylpropyl)-6-morpholin-4-yl-1,3,5-triazin-2-yl]phenyl}carbamoyl)amino]benzamide] | 1 nM | 22 nM | 5.2 nM | – | – | 35 nM | – | 4 nM | – | –
